Data published in patent US20250090502A1, “METHODS OF TREATING, AMELIORATING, AND/OR PREVENTING BACTERIAL INFECTION, OR METHODS OF REDUCING ADVERSE EFFECTS CAUSED BY BACTERIA” (Drexel University, priority 2023, published 2025).
“Also recorded” adds a separate entry of the source.

Tests used:
[1] = tested on: methicillin-resistant S. aureus (MRSA) (strain USA300 LAC::lux); test: Mouse model of S. aureus intradermal infection (MRSA USA300 LAC::lux); assay type: in vivo, mice; settings: single dose of 125 μM or 250 μM HEJ14 at time of infection, day 3, vs vehicle, dose-dependent
Description: The dorsal skin surfaces of anesthetized mice were shaved; a 100 μL volume of 3×10^7 CFU of methicillin-resistant S. aureus (MRSA) (strain USA300 LAC::lux) was injected intradermally with, from left to right, vehicle, 125 μM of HEJ14, or 250 μM of HEJ14. FIG. 8A: Digital photographs of dorsal lesions. FIG. 8B: Digital bioluminescent signals of S. aureus. FIG. 8C: images from FIG. 8A were analyzed using Image J to obtain total lesion areas. FIG. 8D Images from FIG. 8B were analyzed by Image J to determine bacterial burden based on photon count.
To investigate the efficacy of a RelA inhibitor against in vivo bacterial infections, the present study employed an established mouse model of S. aureus intradermal infection with the community-associated methicillin-resistant S. aureus infections (CA-MRSA) bioluminescent strain USA300 LAC::lux (Marchitto et al., Proc Natl Acad Sci USA 2019; 116:10917-26; Alphonse et al., Sci Transl Med 2021; 13.; Wang et al., Nat Med 2007; 13:1510-4.; Dong et al., Immunity 2022; 55:1645-62.e7).

S. aureus = test: Hemolytic activity of S. aureus culture supernatants on sheep's blood agar; assay type: cell-based, Staphylococcus aureus; settings: S. aureus cultures incubated with HEJ14 (125 μM) for 24 hrs vs vehicle
Description: S. aureus broth cultures were incubated with vehicle or HEJ14 (125 μM) for 24 hrs. The supernatants were filter sterilized (0.2 μm) and 5 μL plated in serial dilutions on 5% sheep's blood agar, starting with V1 (vehicle treated plate) and R1 (HEJ14 treated plate).

Staphylococcus aureus = test: S. aureus in vitro growth kinetics (OD600); assay type: cell-based; settings: stationary phase; HEJ14 125-500 μM, 24 hours
Description: (§1) Cultures of a S. aureus expressing an agr-GFP reporter were incubated with vehicle (0 μM) or various concentrations of HEJ14 ([…], 250 μM, and 500 μM). The bacterial growth (OD600) and GFP signal intensity (RFU) were measured for a duration of 24 hours at 20-minute intervals. FIG. 6A: Bacterial growth (OD600).
The present study further discovered that the bacterial anti-virulence effects of HEJ14 works on the Gram-positive pathogens, as well. To determine if HEJ14 has an effect on the Gram-positive bacteria Staphylococcus aureus, the present study performed in vitro growth kinetics assays testing various HEJ14 concentrations and measuring OD600 over time.

Haemophilus influenzae = test: Susceptibility of planktonic and biofilm H. influenzae strains to kanamycin alone and in combination with HEJ14; assay type: cell-based
Description: FIG. 3A: transformation frequency of wild type (Rd) Haemophilus influenzae versus ΔRelA Rd; FIG. 3B: transformation frequency of Rd versus ΔRelA/ΔSpot Rd; FIG. 3C: planktonic treatments: no treatment (left); kanamycin treatment (middle); HEJ14+kanamycin treatment (right). Left=WT Rd; middle=ΔRelA Rd and right=ΔRelA/ΔSpot Rd. FIG. 3D: biofilm treatments: no treatment (left); kanamycin treatment (middle); HEJ14+kanamycin treatment (right). Left=WT Rd; middle=ΔRelA Rd and right=ΔRelA/ΔSpot Rd.
To study the effects of HEJ14, including the risk of resistance mutations arising, the present study constructed single gene knockouts of RelA, SpoT, and MsfI (a gene that provides for survival in phagolysosomes) as well as a double RelA/SpoT knockout in the Gram-negative bacteria Haemophilus influenzae using an overlap PCR mutagenesis strategy.
The present study then evaluated the susceptibility of both planktonic (FIG. 3C) and biofilm cells (FIG. 3D) of WT, ΔRelA and the ΔRelA/ΔSpot H. influenzae strains to kanamycin (kan) alone and in combination with HEJ14. In all cases there was a 2-3 log increase in killing by the combo treatment confirming our initial premise that RelA inhibition would potentiate standard antibiotics.

P. aeruginosa [2] = test: Pyocyanin toxin production by P. aeruginosa cultures; assay type: cell-based; settings: P. aeruginosa culture, single agent
Description: FIG. 4 illustrates certain aspects of the effect of HEJ14 on pyocyanin toxin production by the Gram-negative bacteria P. aeruginosa, in accordance with some embodiments. […] The bar chart illustrates the effect of HEJ14 on pyocyanin by P. aeruginosa at various HEJ14 concentrations.
Unexpectedly, the present study discovered that some of the hit compounds, as single agents, inhibited pyocyanin toxin production (FIG. 4) in the Gram-negative pathogen P. aeruginosa at higher specific activities (nanomolar) than required for RelA inhibition. Thus, the present study pursued a bipartite strategy of developing the compounds to treat biofilms, and to “convert” pathogens to commensals.

P. aeruginosa [3] = test: Wax worm model: larvae injected with live P. aeruginosa and HEJ14; assay type: in vivo; settings: 48 hours post-injection; live P. aeruginosa (10^5 CFU) injected simultaneously with single bolus of 50 μM HEJ14
Description: (§2) FIG. 5A: HEJ14 reduced toxin production of P. aeruginosa. The label “DMSO 48 h” above the dish indicate that the larvae were injected with supernatant of P. aeruginosa culture grown with DMSO carrier only. […] Kaplan Meier Plot showing increased survival of wax worms receiving supernatant from HEJ14 treated P. aeruginosa culture. FIG. 5B: HEJ14 protected wax worm larvae from the lethality caused by P. aeruginosa infection. In FIG. 5B, larvae were injected with either live P. aeruginosa (10^5 CFU) and HEJ14, or the live bacteria and DMSO carrier only. Right dish: Larvae were injected with live P. aeruginosa (10^5 CFU) & 50 μM HEJ14. The Kaplan Meier Plot showing increased survival of wax worms receiving HEJ14 treated P. aeruginosa.
(§3) Similarly, HEJ14 protected the larvae for 48 hours when live P. aeruginosa were injected simultaneously with a single bolus of HEJ14 (FIG. 5B).

agr = test: S. aureus agr-GFP reporter expression; assay type: cell-based, Staphylococcus aureus; settings: stationary phase; HEJ14 125, 250, 500 μM
Description: as §1
FIG. 6B: agr expression as measured by GFP signal intensity (RFU) normalized to OD600.
Since the stringent response in S. aureus induces PSMα production and agr activity is essential for psm expression, the present study used an S. aureus agr reporter strain to elucidate the effect of RelA inhibition on agr expression.

P. aeruginosa [4] = test: Wax worm model: larvae injected with supernatant of P. aeruginosa cultures grown with HEJ14; assay type: in vivo; settings: larvae injected with supernatant of cultures treated with HEJ14 during growth vs untreated culture supernatants
Description: as §2, §3

Escherichia coli C = test: E. coli C aggregation under stress conditions; assay type: cell-based; settings: high salt, low temperature and amino acid starvation
Description: Bottom panels: Micrographs of the aggregates (or the lack thereof in the case of HEJ14 treated sample).
E. coli C, when under certain stress conditions, aggregates together and forms highly robust biofilms from a planktonic culture. It was hypothesized that inhibition of RelA would limit aggregation of E. coli C.

Question: How did the “bioluminescence (in vivo bacterial burden)” value [1] turn out when `O=C(O)Cn1cc(C[C@H]2NC(=O)NC2=O)nn1` [HEJ14, (R)-2-(4-((2,5-dioxoimidazolidin-4-yl)methyl)-1H-1,2,3-triazol-1-yl)acetic acid] was run?
Answer: significantly decreased

Question: And the lesion size [1]?
Answer: significantly decreased

Question: What about the “hemolytic effect of culture supernatants on blood agar plates” value (S. aureus) of the same compound?
Answer: reduced hemolytic effect

Question: What about the “bacterial growth (OD600)” value (Staphylococcus aureus) of the same compound?
Answer: enhanced bacterial growth during the stationary phase

Question: What about the “increase in killing by the combo treatment” value (Haemophilus influenzae; HEJ14 in combination with kanamycin vs kanamycin alone, planktonic and biofilm cells of WT, ΔRelA and ΔRelA/ΔSpot H. influenzae) of the same compound?
Answer: 2-3 log

Question: What about the “planktonic and biofilm H. influenzae growth” value (Haemophilus influenzae; even in ΔRelA strains) of the same compound?
Answer: able to inhibit planktonic and biofilm H. influenzae growth

Question: And the pyocyanin toxin production (P. aeruginosa [2])?
Answer: decreased pyocyanin production

Question: And the larvae survived (P. aeruginosa [3])?
Answer: 95%

Question: And the “agr expression (GFP signal normalized to OD600)” value (agr)?
Answer: dose-dependent decrease in agr expression

Question: What about the “P. aeruginosa virulence in the wax worm model” value (P. aeruginosa [4]) of the same compound?
Answer: significantly reduced P. aeruginosa virulence

Question: What about the “E. coli C aggregation” value (Escherichia coli C) of the same compound?
Answer: completely absent; also recorded: reduced the amount of E. coli C aggregation
